Experimental data taken from US12543736B2, “Herbicidal compositions comprising mesotrione” (BASF SE, priority 2024, dated 2026).

Tests used:
Assay type in all cases: in vivo
[1] = test system: Panicum dichotomiflorum; experiment: Example 1 post-emergence greenhouse trial, PANDI; settings: growth stage 13, 21 DAT, g ai/ha: A-1 4, B 62.5
Description: In the examples below, using the method of S. R. Colby (1967) “Calculating synergistic and antagonistic responses of herbicide combinations”, Weeds 15, p. 22ff., the value E, which is expected if the activity of the individual active compounds is only additive, was calculated: [formula] • where • X=percent activity using active herbicide A at an application rate a; • Y=percent activity using active herbicide B (e.g. mesotrione) at an application rate b; • E=expected activity (in %) by A+B at application rates a+b. If the value found experimentally is higher than the value E calculated according to Colby, a synergistic effect is present. The culture containers used were plastic pots containing loamy sand with approximately 3.0% of humus as substrate. The seeds of the test plants were sown separately for each species. For the post-emergence treatment, the test plants were grown to a plant height of from 3 to 15 cm, depending on the plant habit, and only then treated with the active compounds which had been suspended or emulsified in water. To this end, the test plants were either sown directly, and grown in the same containers, or they were first grown separately as seedlings and transplanted into the test containers a few days prior to treatment. […] During this time, the plants were tended and their response to the individual treatments was evaluated. […]

[2] = test system: Erigeron canadensis; experiment: Example 2 post-emergence greenhouse trial, ERICA
Description: In the examples below, using the method of S. R. Colby (1967) “Calculating synergistic and antagonistic responses of herbicide combinations”, Weeds 15, p. 22ff., the value E, which is expected if the activity of the individual active compounds is only additive, was calculated: [formula] • where • X=percent activity using active herbicide A at an application rate a; • Y=percent activity using active herbicide B (e.g. mesotrione) at an application rate b; • E=expected activity (in %) by A+B at application rates a+b. If the value found experimentally is higher than the value E calculated according to Colby, a synergistic effect is present. The culture containers used were plastic pots containing loamy sand with approximately 3.0% of humus as substrate. The seeds of the test plants were sown separately for each species. For the post-emergence treatment, the test plants were grown to a plant height of from 3 to 15 cm, depending on the plant habit, and only then treated with the active compounds which had been suspended or emulsified in water. To this end, the test plants were either sown directly, and grown in the same containers, or they were first grown separately as seedlings and transplanted into the test containers a few days prior to treatment. Depending on the species, the plants were kept at 10-25° C. and 20-35° C., respectively. The test period extended over 2 to 4 weeks. During this time, the plants were tended and their response to the individual treatments was evaluated. Evaluation was carried out using a scale from 0 to 100. 100 means no emergence of the plants, or complete destruction of at least the above-ground parts, and 0 means no damage or normal course of growth. A good herbicidal activity is given at values of at least 70, and very good herbicidal activity is given at values of at least 85. Post-Emergence Application of Herbicide A-1 (A-1) and Mesotrione (B) in Greenhouse Trials Herbicide A-1 (342 g/l) and mesotrione (480 g/l) were, together with addition of 0.5 v/v % MSO (methylated sed oil) as adjuvant, formulated in water as distribution medium (water volume 200 l/ha) and sprayed with commercial flat fan nozzles.

[3] = test system: Senecio vulgaris; experiment: Example 3 post-emergence field trial, SENVU; settings: height 25-30 cm, 7 DAT
Description: In the examples below, using the method of S. R. Colby (1967) “Calculating synergistic and antagonistic responses of herbicide combinations”, Weeds 15, p. 22ff., the value E, which is expected if the activity of the individual active compounds is only additive, was calculated: [formula] • where • X=percent activity using active herbicide A at an application rate a; • Y=percent activity using active herbicide B (e.g. mesotrione) at an application rate b; • E=expected activity (in %) by A+B at application rates a+b. If the value found experimentally is higher than the value E calculated according to Colby, a synergistic effect is present. Evaluation was carried out using a scale from 0 to 100. 100 means no emergence of the plants, or complete destruction of at least the above-ground parts, and 0 means no damage or normal course of growth. A good herbicidal activity is given at values of at least 70, and very good herbicidal activity is given at values of at least 85. Post-Emergence Application of Herbicide A-1 (A-1) and Mesotrione (B) in Field Trials Herbicide A-1 (342 g/l) and mesotrione (100 g/l) were, together with addition of 0.5 v/v % MSO (methylated sed oil) as adjuvant, formulated in water as distribution medium (water volume 200 l/ha) and sprayed with commercial flat fan nozzles.

[4] = test system: Commelina benghalensis; experiment: Example 4 post-emergence application A-1, B and C-19, COMBE; settings: growth stage 13, 21 DAT, g ai/ha: A-1 1, B 50, C-19 30
Description: In the examples below, using the method of S. R. Colby (1967) “Calculating synergistic and antagonistic responses of herbicide combinations”, Weeds 15, p. 22ff., the value E, which is expected if the activity of the individual active compounds is only additive, was calculated:
[formula] • where • X=percent activity using active herbicide A at an application rate a; • Y=percent activity using active herbicide B (e.g. mesotrione) at an application rate b; • E=expected activity (in %) by A+B at application rates a+b.
If the value found experimentally is higher than the value E calculated according to Colby, a synergistic effect is present.
Evaluation was carried out using a scale from 0 to 100. 100 means no emergence of the plants, or complete destruction of at least the above-ground parts, and 0 means no damage or normal course of growth. A good herbicidal activity is given at values of at least 70, and very good herbicidal activity is given at values of at least 85.
Post-Emergence Application of Herbicide A-1 (A-1), Mesotrione (B) and Pyroxasulfone (C-19)
Herbicide A-1 (342 g/l), mesotrione (100 g/l) and pyroxasulfone (500 g/l) were, together with addition of 0.5 v/v % MSO (methylated sed oil) as adjuvant, formulated in water as distribution medium (water volume 200 l/ha) and sprayed with commercial flat fan nozzles.

[5] = growth stage 19, 7 DAT, g ai/ha: A-1 1, B 50
[6] = growth stage 19, 20 DAT, g ai/ha: A-1 0.5, B 50
[7] = growth stage 19, 20 DAT, g ai/ha: A-1 2, B 50

| Structure (SMILES) | % herbicidal activity [1] [%] | % herbicidal activity [2, 5] [%] | % herbicidal activity [2, 6] [%] | % herbicidal activity [2, 7] [%] | % herbicidal activity ([3]; g ai/ha: A-1 12.5, B 210) [%] | % herbicidal activity ([3]; g ai/ha: A-1 18, B 210) [%] | % herbicidal activity [4] [%] |
| --- | --- | --- | --- | --- | --- | --- | --- |
| CCOC(=O)COc1ccccc1Oc1nc(-n2c(=O)cc(C(F)(F)F)n(C)c2=O)c(F)cc1Cl [A-1, ethyl 2-[2-[[3-chloro-5-fluoro-6-[3-methyl-2,6-dioxo-4-(trifluoromethyl)pyrimidin-1-yl]-2-pyridyl]oxy]phenoxy]acetate] | 95 | 80 | 70 | 85 | 85 | 88 | 80 |
| CS(=O)(=O)c1ccc(C(=O)C2C(=O)CCCC2=O)c([N+](=O)[O-])c1 [B, mesotrione] | 0 | 25 | 80 | 80 | 40 | 40 | 90 |
